The target of experiment [1] is Glutamate receptor ionotropic, AMPA (Rattus norvegicus, UniProt P19490+P19491+P19492+P19493). Briefly: Tested for the ability to displace [3H]AMPA (5 nM) from Ionotropic glutamate receptor AMPA in rat forebrain membranes. The class given is cell membranes, Membrane.
Experiment [2] concerns the target Glutamate receptor ionotropic, NMDA 2C (Rattus norvegicus, UniProt Q00961). Put plainly: Tested for the ability to displace [3H]CGS-19,755 (10 nM) binding in rat forebrain membranes for NMDA receptor. The class given is cell membranes, Membrane.
Experiment [3] addresses Glutamate receptor ionotropic, kainate. Briefly: Tested for the ability to displace [3H]kainate (5 nM) binding from Ionotropic glutamate receptor kainate in rat forebrain membranes. The format is cell membranes, Membrane.
The species named for experiment [4] is Rattus norvegicus. Put plainly: Tested for the ability to antagonize depolarizations induced by NMDA (40 uM), AMPA (40 uM); insignificant. The format is functional.

Activity calls are given as the source filed them. No cut-off for these calls is given here.

Sequence of Glutamate receptor ionotropic, NMDA 2C (Q00961 whole entry): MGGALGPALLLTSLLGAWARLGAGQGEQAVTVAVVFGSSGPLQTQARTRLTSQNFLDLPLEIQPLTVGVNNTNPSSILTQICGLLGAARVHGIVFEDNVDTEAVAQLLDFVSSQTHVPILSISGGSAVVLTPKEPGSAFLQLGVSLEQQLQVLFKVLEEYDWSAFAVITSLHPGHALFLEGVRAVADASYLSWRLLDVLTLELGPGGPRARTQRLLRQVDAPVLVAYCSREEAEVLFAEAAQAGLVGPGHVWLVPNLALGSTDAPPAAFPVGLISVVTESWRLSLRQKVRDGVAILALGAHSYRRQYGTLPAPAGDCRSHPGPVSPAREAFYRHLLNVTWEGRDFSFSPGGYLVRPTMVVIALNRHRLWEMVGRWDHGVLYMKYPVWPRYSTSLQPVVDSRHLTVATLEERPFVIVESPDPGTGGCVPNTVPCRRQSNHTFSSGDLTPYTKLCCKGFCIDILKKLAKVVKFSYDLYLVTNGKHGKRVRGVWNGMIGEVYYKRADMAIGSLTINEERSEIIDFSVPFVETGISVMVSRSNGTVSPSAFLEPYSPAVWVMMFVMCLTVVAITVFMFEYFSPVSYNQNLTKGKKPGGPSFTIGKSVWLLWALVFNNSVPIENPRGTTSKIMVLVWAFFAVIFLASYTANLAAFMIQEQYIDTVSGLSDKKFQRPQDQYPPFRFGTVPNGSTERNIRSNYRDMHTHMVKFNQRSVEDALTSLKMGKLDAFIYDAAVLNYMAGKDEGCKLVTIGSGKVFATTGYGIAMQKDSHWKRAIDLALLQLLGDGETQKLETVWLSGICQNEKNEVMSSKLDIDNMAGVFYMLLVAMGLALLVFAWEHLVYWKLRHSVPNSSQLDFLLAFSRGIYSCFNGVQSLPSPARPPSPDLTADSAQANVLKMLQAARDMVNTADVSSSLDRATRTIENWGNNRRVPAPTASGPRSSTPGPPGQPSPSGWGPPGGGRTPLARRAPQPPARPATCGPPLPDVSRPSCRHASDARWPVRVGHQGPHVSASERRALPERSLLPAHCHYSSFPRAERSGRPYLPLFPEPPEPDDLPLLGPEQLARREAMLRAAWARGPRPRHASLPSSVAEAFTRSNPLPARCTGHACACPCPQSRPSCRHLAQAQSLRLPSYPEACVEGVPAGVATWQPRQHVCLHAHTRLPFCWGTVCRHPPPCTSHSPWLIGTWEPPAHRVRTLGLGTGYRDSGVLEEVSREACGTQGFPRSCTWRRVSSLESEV

With `O=C(O)[C@@H]1C[C@@H](c2nnn[nH]2)CN1`, the figures for the IC50 in experiment [1], in experiment [2] and in experiment [3] were 3.38 µM, above 100 µM and 61 µM, respectively. For the same compound, the Effect result in experiment [4] is “inactive”.

As to `O=C(O)[C@H]1C[C@H](c2nnn[nH]2)CN1`, the IC50 in experiment [1], in experiment [2] and in experiment [3] was above 100 µM each time.

Take `O=C(O)[C@H]1CN[C@H](C(=O)O)C1`: the IC50 in experiment [1], in experiment [2] and in experiment [3] was above 100 µM in each case.

The values are drawn from ChEMBL document CHEMBL1150536, “Synthesis and pharmacological characterization of l-trans-4-tetrazolylproline (ly300020): A novel systemically-active ampa receptor agonist” (Bioorg Med Chem Lett, 1993).
